Source: ChEMBL document CHEMBL1201862, “PubChem BioAssay data set” (2004)
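The compound was tested at five concentrations on cells cultured in 96-well plates, with a 48-hour exposure period. At the GI50, growth is halved.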 The source made the active and inactive calls. No stated cut-off is given here; in the data, active = GI50 up to about 1.1 µM and inactive = higher.

Columns and labels:
Assay in all cases: NCI tumour cell line growth inhibition, 48 h
UO-31 = system: UO-31
HT-29 = system: HT-29
RPMI-8226 = system: RPMI-8226
LOX IMVI = system: LOX IMVI
A498 = system: A498
M14 = system: M14
NCI-H522 = system: NCI-H522
EKVX = system: EKVX
HOP-18 = system: HOP-18
SK-MEL-28 = system: SK-MEL-28
SK-MEL-2 = system: SK-MEL-2
HCC 2998 = system: HCC 2998
U-251 = system: U-251
SNB-75 = system: SNB-75
HCT-15 = system: HCT-15
HCT-116 = system: HCT-116
HL-60 = system: HL-60
DLD-1 = system: DLD-1
HOP-92 = system: HOP-92
UACC-257 = system: UACC-257
COLO 205 = system: COLO 205
M19-MEL = system: M19-MEL
SNB-78 = system: SNB-78
SK-MEL-5 = system: SK-MEL-5
XF498 = system: XF498
LXFL 529 = system: LXFL 529
SN12C = system: SN12C
KM-20L2 = system: KM-20L2
OVCAR-5 = system: OVCAR-5
SF-295 = system: SF-295
OVCAR-3 = system: OVCAR-3
DMS-273 = system: DMS-273
OVCAR-8 = system: OVCAR-8
MOLT-4 = system: MOLT-4
NCI-H226 = system: NCI-H226
RXF 393 = system: RXF 393
SF-539 = system: SF-539
UACC-62 = system: UACC-62
A549 = system: A549
SNB-19 = system: SNB-19
CCRF-CEM = system: CCRF-CEM
SK-OV-3 = system: SK-OV-3
RXF 631 = system: RXF 631
Malme-3M = system: Malme-3M
NCI-H23 = system: NCI-H23
CAKI-1 = system: CAKI-1
TK-10 = system: TK-10
K562 = system: K562
OVCAR-4 = system: OVCAR-4
HOP-62 = system: HOP-62
SF-268 = system: SF-268
KM12 = system: KM12
IGROV-1 = system: IGROV-1
SW-620 = system: SW-620
ACHN = system: ACHN
786-0 = system: 786-0
NCI-H460 = system: NCI-H460

O=S(=O)(C/C(=N\O)c1ccccc1)c1ccccc1
GI50 (UO-31): > 100 µM (inactive)
GI50 (HT-29): > 100 µM (inactive)
GI50 (RPMI-8226): > 100 µM (inactive)
GI50 (LOX IMVI): > 100 µM (inactive)
GI50 (A498): > 100 µM (inactive)
GI50 (M14): > 100 µM (inactive)
GI50 (NCI-H522): 57.9 µM (inactive)
GI50 (EKVX): > 100 µM (inactive)
GI50 (HOP-18): > 100 µM (inactive)
GI50 (SK-MEL-28): > 100 µM (inactive)
GI50 (SK-MEL-2): > 100 µM (inactive)
GI50 (HCC 2998): > 100 µM (inactive)
GI50 (U-251): > 100 µM (inactive)
GI50 (SNB-75): > 100 µM (inactive)
GI50 (HCT-15): > 100 µM
GI50 (HCT-116): > 100 µM (inactive)
GI50 (HL-60): > 100 µM (inactive)
GI50 (DLD-1): > 100 µM (inactive)
GI50 (HOP-92): > 100 µM (inactive)
GI50 (UACC-257): > 100 µM (inactive)
GI50 (COLO 205): > 100 µM (inactive)
GI50 (M19-MEL): > 100 µM (inactive)
GI50 (SNB-78): > 100 µM (inactive)
GI50 (SK-MEL-5): > 100 µM (inactive)
GI50 (XF498): 59.3 µM (inactive)
GI50 (LXFL 529): > 100 µM (inactive)
GI50 (SN12C): > 100 µM (inactive)
GI50 (KM-20L2): > 100 µM (inactive)
GI50 (OVCAR-5): > 100 µM (inactive)
GI50 (SF-295): > 100 µM (inactive)
GI50 (OVCAR-3): > 100 µM (inactive)
GI50 (DMS-273): > 100 µM (inactive)
GI50 (OVCAR-8): > 100 µM (inactive)
GI50 (MOLT-4): > 100 µM (inactive)
GI50 (NCI-H226): > 100 µM (inactive)
GI50 (RXF 393): > 100 µM (inactive)
GI50 (SF-539): > 100 µM (inactive)
GI50 (UACC-62): > 100 µM (inactive)
GI50 (A549): > 100 µM (inactive)
GI50 (SNB-19): > 100 µM (inactive)
GI50 (CCRF-CEM): > 100 µM (inactive)
GI50 (SK-OV-3): > 100 µM (inactive)
GI50 (RXF 631): > 100 µM (inactive)
GI50 (Malme-3M): > 100 µM (inactive)
GI50 (NCI-H23): > 100 µM (inactive)
GI50 (CAKI-1): > 100 µM (inactive)
GI50 (TK-10): > 100 µM (inactive)
GI50 (K562): > 100 µM (inactive)
GI50 (OVCAR-4): > 100 µM (inactive)
GI50 (HOP-62): > 100 µM (inactive)
GI50 (SF-268): > 100 µM (inactive)
GI50 (KM12): > 100 µM (inactive)
GI50 (IGROV-1): > 100 µM (inactive)
GI50 (SW-620): > 100 µM (inactive)
GI50 (ACHN): > 100 µM (inactive)
GI50 (786-0): > 100 µM (inactive)
GI50 (NCI-H460): > 100 µM (inactive)

Nc1ncn([C@@H]2C=C(CO)C(O)C2O)c(=O)n1 (some centres not stated)
GI50 (UO-31): 50.7 µM (inactive)
GI50 (HT-29): 57.4 µM (inactive)
GI50 (RPMI-8226): 37.7 µM (inactive)
GI50 (LOX IMVI): 44.4 µM (inactive)
GI50 (A498): > 100 µM (inactive)
GI50 (M14): 60.1 µM (inactive)
GI50 (NCI-H522): > 100 µM (inactive)
GI50 (EKVX): > 100 µM (inactive)
GI50 (HOP-18): > 100 µM (inactive)
GI50 (SK-MEL-28): > 100 µM (inactive)
GI50 (SK-MEL-2): > 100 µM (inactive)
GI50 (HCC 2998): 56.2 µM (inactive)
GI50 (U-251): > 100 µM (inactive)
GI50 (HCT-15): 60.3 µM
GI50 (HCT-116): 39.2 µM (inactive)
GI50 (HL-60): 39.5 µM (inactive)
GI50 (DLD-1): 58.2 µM (inactive)
GI50 (HOP-92): > 100 µM (inactive)
GI50 (UACC-257): > 100 µM (inactive)
GI50 (COLO 205): 37.8 µM (inactive)
GI50 (M19-MEL): > 100 µM (inactive)
GI50 (SNB-78): 61.5 µM (inactive)
GI50 (SK-MEL-5): > 100 µM (inactive)
GI50 (XF498): > 100 µM (inactive)
GI50 (LXFL 529): 75 µM (inactive)
GI50 (SN12C): > 100 µM (inactive)
GI50 (KM-20L2): 63.8 µM (inactive)
GI50 (OVCAR-5): > 100 µM (inactive)
GI50 (SF-295): > 100 µM (inactive)
GI50 (OVCAR-3): > 100 µM (inactive)
GI50 (DMS-273): > 100 µM (inactive)
GI50 (OVCAR-8): 79.3 µM (inactive)
GI50 (MOLT-4): 56.5 µM (inactive)
GI50 (NCI-H226): 95.1 µM (inactive)
GI50 (SF-539): > 100 µM (inactive)
GI50 (UACC-62): 83.9 µM (inactive)
GI50 (A549): 66.5 µM (inactive)
GI50 (SNB-19): > 100 µM (inactive)
GI50 (CCRF-CEM): 45.5 µM (inactive)
GI50 (SK-OV-3): > 100 µM (inactive)
GI50 (RXF 631): > 100 µM (inactive)
GI50 (Malme-3M): > 100 µM (inactive)
GI50 (NCI-H23): > 100 µM (inactive)
GI50 (CAKI-1): 98.4 µM (inactive)
GI50 (TK-10): > 100 µM (inactive)
GI50 (K562): 43.6 µM (inactive)
GI50 (OVCAR-4): > 100 µM (inactive)
GI50 (HOP-62): 53.7 µM (inactive)
GI50 (SF-268): > 100 µM (inactive)
GI50 (KM12): 85.3 µM (inactive)
GI50 (IGROV-1): 70.1 µM (inactive)
GI50 (SW-620): 69.8 µM (inactive)
GI50 (ACHN): 51.4 µM (inactive)
GI50 (786-0): 55.5 µM (inactive)
GI50 (NCI-H460): 28.6 µM (inactive)
